± gives the standard deviation of the averaged measurements.
Experiments:
Experiment in all cases: level (log10 ratio to DMSO vehicle control); higher = higher biomarker level / cell amount than vehicle control
[1] = compound: C[C@@H]1C[C@H]2[C@@H]3CCC4=CC(=O)C=C[C@]4(C)[C@@]3(F)[C@@H](O)C[C@]2(C)[C@@]1(O)C(=O)COP(=O)(O)O [Dexamethasone sodium phosphate] (in DMSO)
Description: (§1)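 BioMAP Diversity Plus panel of 12 human primary cell co-culture systems (3C, 4H, LPS, SAg, BT, BF4T, BE3C, CASM3C, HDF3CGF, KF3CT, MyoF, Mphg). Compounds were added 1 h before stimulation and left for 24 h (MyoF 48 h; BT 72 h for soluble read-outs or 6 d for IgG). Biomarkers were read by ELISA, cytotoxicity by SRB, PBMC viability and proliferation by Alamar Blue. Each well value was divided by the mean of 8 DMSO control wells on the same plate and log10 transformed; duplicate blinded samples were tested at 4 concentrations.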

[2] = compound: CO[Si](C)(CCC(F)(F)C(F)(F)C(F)(F)C(F)(F)C(F)(F)C(F)(F)F)OC [Dimethoxymethyl((perfluorohexyl)ethyl)silane] (in DMSO)
Description: as §1

[3] = compound: NS(=O)(=O)C(F)(F)C(F)(F)C(F)(F)C(F)(F)C(F)(F)C(F)(F)C(F)(F)C(F)(F)F [Perfluorooctanesulfonamide] (in DMSO)
Description: as §1

[4] = compound: CN(C(=O)C(F)(F)C(F)(F)C(F)(F)F)[Si](C)(C)C [N-Methyl-N-trimethylsilylheptafluorobutyramide] (in DMSO)
Description: as §1

Perfluoroundecanoic acid = compound: O=C(O)C(F)(F)C(F)(F)C(F)(F)C(F)(F)C(F)(F)C(F)(F)C(F)(F)C(F)(F)C(F)(F)C(F)(F)F [Perfluoroundecanoic acid] (in DMSO); conditions: 6700 nM
Description: as §1

[5] = compound: O=C(O)C(F)(F)OC(F)(F)C(F)(F)OC(F)(F)C(F)(F)OC(F)(F)C(F)(F)C(F)(F)C(F)(F)F [Perfluoro-3,6,9-trioxatridecanoic acid] (in DMSO); conditions: 6700 nM
Description: as §1

[6] = compound: O=S(=O)(O)C(F)(F)C(F)(F)C(F)(F)C(F)(F)C(F)(F)C(F)(F)C(F)(F)F [Perfluoroheptanesulfonic acid] (in DMSO)
Description: as §1

[7] = compound: C=C(C)C(=O)OCCC(F)(F)C(F)(F)C(F)(F)C(F)(F)C(F)(F)C(F)(F)C(F)(F)C(F)(F)F [8:2 Fluorotelomer methacrylate] (in DMSO)
Description: as §1

| Test System | level (log10) ([1]; 1500 nM) | level (log10) ([1]; 4400 nM) | level (log10) ([1]; 13000 nM) | level (log10) ([1]; 40000 nM) | level (log10) ([2]; 6700 nM) | level (log10) ([2]; 20000 nM) | level (log10) ([3]; 6700 nM) | level (log10) ([3]; 20000 nM) | level (log10) ([4]; 6700 nM) | level (log10) ([4]; 20000 nM) | level (log10) ([4]; 60000 nM) | level (log10) (Perfluoroundecanoic acid) | level (log10) [5] | level (log10) ([6]; 1500 nM) | level (log10) ([6]; 4400 nM) | level (log10) ([6]; 13000 nM) | level (log10) ([6]; 40000 nM) | level (log10) ([7]; 6700 nM) | level (log10) ([7]; 20000 nM) |
| --- | --- | --- | --- | --- | --- | --- | --- | --- | --- | --- | --- | --- | --- | --- | --- | --- | --- | --- | --- |
| HDF3CGF:M-CSF | 0.0645 ± 0.053 | 0.049 ± 0.096 | 0.0505 ± 0.094 | 0.0175 ± 0.13 | -0.039 ± 0.0028 | -0.02 ± 0.025 | -0.0605 ± 0.012 | -0.507 ± 0.07 | -0.0375 ± 0.03 | -0.038 ± 0.0085 | -0.029 ± 0.055 | -0.0425 ± 0.015 | -0.158 ± 0.016 | -0.0025 ± 0.011 | 0.0075 ± 0.019 | 0.003 ± 0.016 | 0 ± 0.034 | -0.0295 ± 0.019 | -0.093 ± 0.013 |
| 3C:CD106/VCAM-1 | 0.0035 ± 0.043 | -0.009 ± 0.016 | -0.031 ± 0.017 | -0.0265 ± 0.0064 | -0.0115 ± 0.035 | -0.009 ± 0.024 | -0.0005 ± 0.012 | 0.003 ± 0.013 | -0.0245 ± 0.0021 | -0.01 ± 0.016 | 0.0025 ± 0.012 | -0.001 ± 0.044 | -0.0335 ± 0.023 | 0.001 ± 0.0042 | -0.011 ± 0.0014 | -0.016 ± 0.0028 | -0.0185 ± 0.00071 | -0.0205 ± 0.019 | -0.0445 ± 0.015 |
| HDF3CGF:TIMP-2 | 0.0475 ± 0.028 | 0.062 ± 0.081 | 0.061 ± 0.065 | 0.0585 ± 0.0021 | 0.002 ± 0.027 | -0.03 ± 0.0014 | -0.0545 ± 0.0021 | -0.102 ± 0.044 | -0.0155 ± 0.036 | 0.002 ± 0.017 | -0.0065 ± 0.049 | 0.009 ± 0.0042 | -0.291 ± 0.005 | -0.0185 ± 0.0064 | -0.0395 ± 0.029 | -0.0115 ± 0.028 | -0.045 ± 0.0014 | -0.001 ± 0.013 | -0.0395 ± 0.012 |
| 3C:CCL2/MCP-1 | 0.012 ± 0.013 | -0.0125 ± 0.005 | -0.0155 ± 0.00071 | -0.004 ± 0.013 | -0.0005 ± 0.0021 | 0.012 ± 0.0042 | -0.0015 ± 0.0021 | 0.085 ± 0.0057 | -0.009 ± 0.014 | -0.0075 ± 0.0064 | 0.0005 ± 0.016 | 0.009 ± 0.0042 | 0.0155 ± 0.021 | -0.0035 ± 0.005 | -0.0065 ± 0.0021 | 0.002 ± 0.0014 | 0.01 ± 0.0014 | 0.0115 ± 0.012 | 0.009 ± 0.0014 |
| CASM3C:PAI-I | 0.011 ± 0.018 | 0.0125 ± 0.018 | 0.0145 ± 0.015 | 0.015 ± 0.0028 | -0.0125 ± 0.022 | -0.0005 ± 0.011 | 0.012 ± 0.0057 | 0.0055 ± 0.011 | 0.0015 ± 0.021 | -0.003 ± 0.0071 | 0.0005 ± 0.0078 | 0.005 ± 0.0057 | 0.0015 ± 0.005 | 0.006 ± 0.0057 | 0.0075 ± 0.0064 | 0.009 ± 0.0042 | 0.008 ± 0.0042 | 0.001 ± 0.0014 | 0.0065 ± 0.011 |
| KF3CT:TIMP-2 | -0.0095 ± 0.025 | -0.0005 ± 0.021 | -0.0025 ± 0.005 | 0.0155 ± 0.069 | -0.004 ± 0.028 | 0.0035 ± 0.011 | -0.0275 ± 0.012 | -0.06 ± 0.021 | -0.0315 ± 0.011 | -0.0145 ± 0.0078 | 0.0095 ± 0.035 | 0.0125 ± 0.012 | -0.172 ± 0.037 | -0.0225 ± 0.013 | -0.0035 ± 0.03 | -0.0195 ± 0.016 | 0.0105 ± 0.0021 | -0.018 ± 0.014 | -0.0335 ± 0.033 |
| lMphg:sIL-10 | -0.286 ± 0.05 | -0.503 ± 0.054 | -0.62 ± 0.056 | -0.646 ± 0.054 | -0.0465 ± 0.013 | -0.085 ± 0.014 | -0.068 ± 0.021 | -0.169 ± 0.025 | -0.006 ± 0.061 | -0.135 ± 0.1 | -0.0905 ± 0.043 | 0.0325 ± 0.016 | -0.0585 ± 0.00071 | -0.042 ± 0.018 | -0.109 ± 0.048 | -0.101 ± 0.023 | -0.239 ± 0.072 | -0.107 ± 0.049 | -0.116 ± 0.0021 |
| CASM3C:Serum Amyloid A | 0.489 ± 0.034 | 0.473 ± 0.015 | 0.4675 ± 0.0021 | 0.469 ± 0.022 | -0.015 ± 0.0014 | 0.014 ± 0.041 | 0.0055 ± 0.028 | 0.012 ± 0.047 | -0.018 ± 0.0099 | -0.0275 ± 0.025 | 0.013 ± 0.082 | 0.014 ± 0.016 | -0.0305 ± 0.013 | 0.03 ± 0.051 | -0.027 ± 0.0028 | -0.0305 ± 0.032 | -0.013 ± 0.048 | -0.045 ± 0.0057 | -0.02 ± 0.078 |
| CASM3C:CCL2/MCP-1 | -0.0825 ± 0.05 | -0.105 ± 0.037 | -0.113 ± 0.0042 | -0.086 ± 0.047 | -0.013 | 0.02 ± 0.016 | 0.01 ± 0.013 | 0.01 ± 0.023 | -0.0115 ± 0.0064 | -0.001 ± 0.02 | 0.0165 ± 0.013 | 0.0065 ± 0.015 | -0.0045 ± 0.023 | -0.007 ± 0.088 | -0.043 ± 0.024 | -0.034 ± 0.016 | -0.021 ± 0.0028 | -0.011 ± 0.0099 | 0.0025 ± 0.037 |
| 3C:CD141/Thrombomodulin | 0.0105 ± 0.074 | -0.015 ± 0.052 | -0.0055 ± 0.04 | -0.045 ± 0.062 | -0.0035 ± 0.0021 | -0.0275 ± 0.025 | 0.018 ± 0.0099 | 0.107 ± 0.0014 | -0.024 ± 0.016 | -0.022 ± 0.014 | -0.0115 ± 0.0092 | -0.023 ± 0.047 | -0.0155 ± 0.0021 | 0.014 ± 0.013 | -0.0085 ± 0.028 | -0.035 ± 0.064 | -0.042 ± 0.028 | -0.031 ± 0.055 | -0.033 ± 0.02 |
| lMphg:SRB-Mphg | -0.0225 ± 0.022 | -0.0625 ± 0.005 | -0.0715 ± 0.018 | -0.0805 ± 0.057 | 0.0195 ± 0.0021 | 0.0295 ± 0.0021 | -0.0005 ± 0.0064 | -0.027 ± 0.016 | 0.0035 ± 0.00071 | 0.002 ± 0.031 | 0.015 ± 0.02 | -0.019 ± 0.016 | 0.0035 ± 0.0035 | -0.0005 ± 0.016 | -0.0025 ± 0.036 | 0.002 ± 0.0099 | -0.0005 ± 0.036 | 0.0085 ± 0.011 | -0.009 ± 0.031 |
| MyoF:PAI-I | 0.0185 ± 0.0078 | 0.0085 ± 0.015 | 0.005 ± 0.0028 | 0.0085 ± 0.012 | 0.0075 ± 0.0092 | 0.008 ± 0.0014 | 0.0135 ± 0.019 | 0.006 ± 0.0071 | -0.009 ± 0.021 | 0.0095 ± 0.015 | 0.0105 ± 0.0092 | -0.01 ± 0.018 | -0.0885 ± 0.046 | 0.008 ± 0.0085 | 0.0085 ± 0.00071 | 0.005 ± 0.0028 | 0.019 ± 0.023 | 0.0005 ± 0.0078 | -0.013 ± 0.0071 |
